“Also recorded” adds a separate entry of the source.
What was measured:
[1] = system: Lin^−/CD34^+/CD38^−/CD123^+ cancer stem cells in KG1a cells; test: Immunophenotypic quantification of the leukaemic stem cell compartment in KG1a cells; assay type: cell-based, human; settings: for low concentration at which the selective reduction of cancer stem cells was still observed / proportion of cancer stem cells as compared to non-stem cancer cells after treatment / selectivity against cancer stem cells compared to the parent compound: KG1a cells; for proportion of cancer stem cells as compared to non-stem cancer cells after treatment: 72 h; for selectivity for cancer stem cells as opposed to non-stem cancer cells (summary): summary statement of the description
Method: The respective abilities of NUC-1031 and gemcitabine to target CSCs were investigated in the AML cell line KG1a.
KG1a cells were cultured for 72 hours in the presence of a wide range of concentrations of each nucleoside analogue and their respective ProTides. Cells were then harvested and labelled with a cocktail of anti-lineage antibodies (PE-cy7), anti-CD34 (FITC), anti-CD38 (PE) and anti-CD123 (PERCP cy5). The sub-population expressing a leukaemic stem cell (LSC) phenotype were subsequently identified and were expressed as a percentage of all viable cells left in the culture. The percentages of stem cells remaining were then plotted on a dose-response graph and the proportion of cancer stem cells was compared across the various concentrations of ProTides and their respective parent compounds, in order to determine if they preferentially target cancer stem cells.
The data obtained in these experiments were evaluated using one way ANOVA. All data was confirmed as Gaussian or a Gaussian approximation using the omnibus K2 test. LD50 values were calculated from the non-linear regression and line of best-fit analysis of the sigmoidal dose-response curves. All statistical analyses were performed using Graphpad Prism 6.0 software (Graphpad Software Inc., San Diego, Calif.).

[2] = system: primary acute myeloid leukaemia (AML) blasts; test: In vitro cytotoxicity assay (LD50) in primary acute myeloid leukaemia cells; assay type: cell-based, human; settings: for LD50: primary AML blasts, 48 h, concentration required to kill 50% of the tumour cells in culture; for potency as compared to the respective parent compound (summary): summary statement of the description
Method: ProTide compounds, as defined herein, and the comparator ProTide compound NUC-1031 were assayed for their cytotoxic effects on primary cultures of acute myeloid leukaemia (AML) blasts. LD50 values (the concentration required to kill 50% of the tumour cells in culture) were calculated in respect of the ProTide compounds of the invention, and the parent compounds from which they are derived. […] The LD50 values of the ProTide compounds as defined herein (and their parent compounds) were compared with the comparator ProTide NUC-1031 and its parent compound gemcitabine.
Bone marrow samples were collected in ethylenediaminetetraacetic acid (EDTA) from newly diagnosed, previously untreated, acute myeloid leukaemia (AML) patients. AML blasts were enriched by density gradient centrifugation using Histopaque (Sigma, Poole, UK) and were subsequently maintained in Roswell Park Memorial Institute medium (RPMI) supplemented with 10% foetal bovine serum (FBS). Cells were treated with ProTide compounds (either as encompassed by the present invention, or the comparator ProTide NUC-1031) or with the ProTides' parent compounds at a range of experimental concentrations, and incubated for 48 h. All cultures were maintained at 37° C. in a 5% CO2 humidified atmosphere.
Cells were harvested and labelled with CD34-fluorescein isothiocyanate (FITC) (BD Biosciences, Buckingham, UK) and then resuspended in 200 μl of binding buffer containing 4 μl of annexin V labelled with allophycocyanin (APC) (eBioscience Ltd, Hatfield, UK). Apoptosis was quantified in the CD34^+ AML cells using an Accuri C6 flow cytometer (Becton Dickinson, CA, USA). At least 10,000 events were acquired and data were subsequently analysed using FlowJo software (Tree Star Inc., Ashland, Oreg., USA). All LD50 values (concentration of drug required to kill 50% of cells) were derived from the dose-response curves.

SMILES | low concentration at which the selective reduction of cancer stem cells was still observed [1] | proportion of cancer stem cells as compared to non-stem cancer cells after treatment [1] | selectivity for cancer stem cells as opposed to non-stem cancer cells (summary) [1] | LD50 [2] | potency as compared to the respective parent compound (summary) [2] | selectivity against cancer stem cells compared to the parent compound [1]
C[C@H](NP(=O)(OC[C@H]1O[C@@H](n2cc(F)c(=O)[nH]c2=O)CC1O)Oc1cccc2ccccc12)C(=O)OCc1ccccc1 (single isomer, unassigned) [CPF-373 (Iso A)] | approximately 8×10^−8 M | reduction in the proportion of cancer stem cells | selectively target for cancer stem cells; also recorded: high selectivity for cancer stem cells | CPF 373 (Iso A) 0.052 μM | greater potency | 
C[C@H](NP(=O)(OC[C@H]1O[C@@H](n2cc(F)c(=O)[nH]c2=O)CC1O)Oc1cccc2ccccc12)C(=O)OCc1ccccc1 (single isomer, unassigned) [CPF-373 (Iso B)] | approximately 8×10^−8 M | reduction in the proportion of cancer stem cells | selectively target for cancer stem cells; also recorded: high selectivity for cancer stem cells | CPF 373 (Iso B) 0.055 μM | greater potency | 
C[C@H](NP(=O)(OC[C@H]1O[C@@H](n2cc(F)c(=O)[nH]c2=O)CC1O)Oc1cccc2ccccc12)C(=O)OCc1ccccc1 (some centres unmarked) [CPF-373 (mix)] |  |  |  | CPF 373 (mix) 0.053 μM |  | 
C[C@H](NP(=O)(OC[C@H]1O[C@@H](n2cc(F)c(=O)[nH]c2=O)CC1O)Oc1ccccc1)C(=O)OCc1ccccc1 (some centres unmarked) [CPF-381] | approximately 8×10^−8 M | reduction in the proportion of cancer stem cells | selectively target for cancer stem cells; also recorded: high selectivity for cancer stem cells | CPF 381 0.039 μM | greater potency | 
C[C@H](NP(=O)(OC[C@H]1O[C@@H](n2cnc3c(N)nc(Cl)nc32)[C@H](F)C1O)Oc1ccccc1)C(=O)OCc1ccccc1 (some centres unmarked) [CPF-448] | approximately 6×10^−8 M | reduction in the proportion of cancer stem cells | selectively target for cancer stem cells; also recorded: high selectivity for cancer stem cells |  |  | greater selectivity
CCOC(=O)[C@H](C)NP(=O)(OC[C@H]1O[C@@H](n2cnc3c(N)nc(F)nc32)[C@H](O)C1O)Oc1cccc2ccccc12 (some centres unmarked) [CPF-544] |  | significant decrease in the proportion of cancer stem cells | selectively target for cancer stem cells; also recorded: high selectivity for cancer stem cells |  |  | comparable
C[C@H](NP(=O)(OC[C@H]1O[C@@H](n2cc(F)c(=O)[nH]c2=O)CC1O)Oc1cccc2ccccc12)C(=O)OCCC(C)(C)C (some centres unmarked) [CPF-585] |  | reduction in the proportion of cancer stem cells | selectively target for cancer stem cells | CPF 585 0.79 μM |  | 
C[C@H](NP(=O)(OC[C@H]1O[C@@H](n2cnc3c(N)nc(F)nc32)[C@H](O)C1O)Oc1ccccc1)C(=O)OCc1ccccc1 (some centres unmarked) [CPF-682] |  | significant decrease in the proportion of cancer stem cells | selectively target for cancer stem cells; also recorded: high selectivity for cancer stem cells |  |  | comparable
C[C@H](NP(=O)(OC[C@H]1O[C@@H](n2cnc3c(N)nc(Cl)nc32)[C@H](F)C1O)Oc1cccc2ccccc12)C(=O)OCC(C)(C)C (some centres unmarked) [CPF-720] | approximately 6×10^−8 M | reduction in the proportion of cancer stem cells | selectively target for cancer stem cells |  |  | 
CCCCCOC(=O)[C@@H](C)NP(=O)(OC[C@H]1O[C@@H](n2cnc3c(N)nc(Cl)nc32)[C@H](F)C1O)Oc1cccc2ccccc12 (some centres unmarked) [CPF-727] | approximately 6×10^−8 M | reduction in the proportion of cancer stem cells | selectively target for cancer stem cells |  |  | 
C[C@H](NP(=O)(OC[C@H]1O[C@@H](n2cnc3c(=S)[nH]cnc32)[C@@H](O)C1O)Oc1cccc2ccccc12)C(=O)OCc1ccccc1 (some centres unmarked) [CPF-761] |  | reduction of the proportion of cancer stem cells | selectively target for cancer stem cells |  |  | greater selectivity; also recorded: most selective; also recorded: increase in selectivity was statistically significant
C[C@H](NP(=O)(OC[C@H]1O[C@@H](n2cnc3c(=S)[nH]cnc32)[C@@H](O)C1O)Oc1cccc2ccccc12)C(=O)OCC(C)(C)C (some centres unmarked) [CPF-762] |  | reduction of the proportion of cancer stem cells | selectively target for cancer stem cells |  |  | greater selectivity
C[C@H](NP(=O)(OC[C@H]1O[C@@H](n2cnc3c(=S)[nH]c(N)nc32)[C@@H](O)C1O)Oc1cccc2ccccc12)C(=O)OCc1ccccc1 (some centres unmarked) [CPF-775] |  | strong reduction in the proportion of cancer stem cells | selectively target for cancer stem cells; also recorded: high selectivity for cancer stem cells |  |  | statistically significant increases in selectivity at certain concentrations
C[C@H](NP(=O)(Oc1cccc2ccccc12)OC1C[C@H](n2cnc3c(N)nc(Cl)nc32)O[C@@H]1CO)C(=O)OCc1ccccc1 (some centres unmarked) [CPF-791] |  | reduction in the proportion of cancer stem cells | selectively target for cancer stem cells |  |  | greater selectivity
C[C@H](NP(=O)(Oc1ccccc1)OC1C[C@H](n2cnc3c(N)nc(Cl)nc32)O[C@@H]1CO)C(=O)OCc1ccccc1 (some centres unmarked) [CPF-793] | approximately 6×10^−8 M | reduction in the proportion of cancer stem cells; also recorded: particularly striking | selectively target for cancer stem cells; also recorded: high selectivity for cancer stem cells |  |  | greater selectivity; also recorded: statistically significant
Nc1nc(Cl)nc2c1ncn2[C@H]1C[C@H](O)[C@@H](CO)O1 [Cladribine] |  | reduction in the proportion of cancer stem cells |  |  |  | 
Nc1nc(Cl)nc2c1ncn2[C@@H]1O[C@H](CO)[C@@H](O)[C@@H]1F [Clofarabine] | approximately 6×10^−8 M | reduction in the proportion of cancer stem cells |  |  |  | 
Nc1ccn([C@@H]2O[C@H](CO)[C@@H](O)C2(F)F)c(=O)n1 [Gemcitabine] |  |  |  | Gemcitabine 1.4 μM |  | 
OC[C@H]1O[C@@H](n2cnc3c(S)ncnc32)[C@H](O)[C@@H]1O [Thioinosine] |  | reduction of the proportion of cancer stem cells |  |  |  | 

Reference: patent US11400107B2, “Cancer treatments” (NuCana plc, priority 2016, dated 2022)
